The source of these data is patent US20260042799A1, “APPLICATION OF PEPTIDE IN PREPARING DRUGS FOR TREATING AND/OR PREVENTING COGNITIVE IMPAIRMENT” (HUAZHONG UNIVERSITY OF SCIENCE AND TECHNOLOGY, priority 2024, published 2026).

Data set [1] has as its system P301S mice. The experiment in a line: Open field test, P301S mice. To be noted: C57 and P301S mice, 15 mg/kg subcutaneous, 14 days. In kind it is in vivo. An excerpt: (§1) FIG. 3A to FIG. 3J show the statistical chart of TAT-P6 peptide improving mouse learning memory ability results. FIGS. 3A-B are behavioral experiments for four groups of mice (C57 mice injected with TAT-S6 group, C57 mice injected with TAT-P6 group, P301S mice injected with TAT-S6 group, P301S mice injected with TAT-P6 group) using open field test system.
(§2) Male P301S mice 6-8 months old (purchased from Jackson Laboratory), C57/BL6 mice 6-8 months old (purchased from Beijing Vital River Laboratory Animal Technology Co., Ltd.), SPF grade, weight 20-25 grams, raised in conventional environment.
Open field experiment: The open field experiment is an experiment in which animals are placed in a closed open metal box area with a length of 80 cm, width of 80 cm, and height of 50 cm to observe mouse activity. This area is divided into squares, and typically the number of squares crossed by mice within a given time is counted to examine the anxiety emotional state and movement ability of the experimental mice. […] The experimental area is set up on the computer, the experimental area is divided equally into a “ ? ” shape, with the innermost circle as the central region and the outermost as the peripheral region, then the camera is turned on, the light source is adjusted, and information such as the position, movement route, and distance of the experimental mice is recorded using the computer. […]

Data set [2] has as its target T1, binding between HA-GluA2 and EGFP-Syn2b (Homo sapiens, UniProt P42262).
T1 construct: HA; expressed in transfected cells; host or cells: HEK293T
The experiment in a line: Co-immunoprecipitation/immunoblotting of Syn2b-GluA2 binding in co-transfected HEK293T cells. To be noted: 10 μM peptide in culture medium for 90 minutes, 48 hours after transfection. It counts as cell-based. As to the method: First, HA-GluA2 and EGFP-Syn2b overexpression plasmids were transfected into HEK293T cells. After 48 hours of transfection, 10 μM concentration of TAT-P6 and TAT-S6 peptides were given in the cell culture medium for 90 minutes, […] and then cells were collected. The overexpressed Syn2b protein is a fusion protein of Syn2b and GFP, using anti-GFP antibody to precipitate cellular proteins, and then using anti-GluA2 antibody to detect the precipitated proteins, the black imprint on the NC membrane indicates the interaction between GluA2 and Syn2b.
Open field experiment: The open field experiment is an experiment in which animals are placed in a closed open metal box area with a length of 80 cm, width of 80 cm, and height of 50 cm to observe mouse activity. This area is divided into squares, and typically the number of squares crossed by mice within a given time is counted to examine the anxiety emotional state and movement ability of the experimental mice. […] Recording is stopped after observing for a certain time, generally about 5 minutes. • 3) Quantify mouse hippocampal related protein content: immunoblotting; • 4) Disrupting the binding of Syn2b and GluA2 in HEK 293T cells: co-immunoprecipitation, immunoblotting. […]
Background: A western blot detects proteins with antibodies after separation by electrophoresis.

The test system of data set [3] is P301S mice. The experiment in a line: Novel object recognition test. As to conditions: 15 mg/kg subcutaneous, 14 days. In kind it is in vivo.
Description: as §1, §2
• 1) Mouse spatial memory detection: novel object recognition and water maze; • a) Novel object recognition: Before conducting the novel object recognition test, it is necessary to eliminate unfamiliarity with the mice by petting them daily to prevent stimulation during operation. The first stage is adaptation period. […] Within 5 min (many experiments have proven that after 2 min of familiarization period, animals already show good preference for novel objects, and of course, 3 min of familiarization makes the preference more obvious), the number of times, time, and distance the animal explores each object are measured. […] If the platform is not found within 90 s, the system automatically stops recording, and the latency period is recorded as 90 s. […]

The test system of data set [4] is P301S mice. Kind of data set: Morris water maze test. In kind it is in vivo. To be noted: detection stage on the 8th day, 15 mg/kg subcutaneous, 14 days.
Description: as §1, §2
• 1) Mouse spatial memory detection: novel object recognition and water maze; • a) Novel object recognition: Before conducting the novel object recognition test, it is necessary to eliminate unfamiliarity with the mice by petting them daily to prevent stimulation during operation. The first stage is adaptation period. Mice move freely in the experimental device (without objects) for 10 minutes. The second stage is familiarization period. […] Within 5 min (many experiments have proven that after 2 min of familiarization period, animals already show good preference for novel objects, and of course, 3 min of familiarization makes the preference more obvious), the number of times, time, and distance the animal explores each object are measured. […] During training, the mouse is gently placed in the water from a ½ radian position of any quadrant with its head facing the pool wall, and its latency period (the time taken by the mouse to find the platform from entering the water) and path are detected as indicators to measure the mouse's learning memory and test performance. […] If the platform is not found within 90 s, the system automatically stops recording, and the latency period is recorded as 90 s. […] The initial training period is 6 days, with daily recording of the time needed for mice to find the platform, recorded as the latency period required for mice to find the platform. […]

Data set [5] can be described thus: Solubility of the synthesized peptide in water. In kind it is physicochemical. To be noted: white powder. An excerpt: The sequence of TAT-P6 is shown in SEQ ID NO:3, artificially synthesized by Jiangsu Qiangyao Biotechnology Co., Ltd., and the mass spectrometry analysis is shown in FIG. 1. […] The sequence of TAT-S6 is shown in SEQ ID NO:4, also synthesized by the same company.

“Also recorded” adds a separate entry of the source. Where no end group is shown, it is not given here.

T1 sequence (P42262 25-883): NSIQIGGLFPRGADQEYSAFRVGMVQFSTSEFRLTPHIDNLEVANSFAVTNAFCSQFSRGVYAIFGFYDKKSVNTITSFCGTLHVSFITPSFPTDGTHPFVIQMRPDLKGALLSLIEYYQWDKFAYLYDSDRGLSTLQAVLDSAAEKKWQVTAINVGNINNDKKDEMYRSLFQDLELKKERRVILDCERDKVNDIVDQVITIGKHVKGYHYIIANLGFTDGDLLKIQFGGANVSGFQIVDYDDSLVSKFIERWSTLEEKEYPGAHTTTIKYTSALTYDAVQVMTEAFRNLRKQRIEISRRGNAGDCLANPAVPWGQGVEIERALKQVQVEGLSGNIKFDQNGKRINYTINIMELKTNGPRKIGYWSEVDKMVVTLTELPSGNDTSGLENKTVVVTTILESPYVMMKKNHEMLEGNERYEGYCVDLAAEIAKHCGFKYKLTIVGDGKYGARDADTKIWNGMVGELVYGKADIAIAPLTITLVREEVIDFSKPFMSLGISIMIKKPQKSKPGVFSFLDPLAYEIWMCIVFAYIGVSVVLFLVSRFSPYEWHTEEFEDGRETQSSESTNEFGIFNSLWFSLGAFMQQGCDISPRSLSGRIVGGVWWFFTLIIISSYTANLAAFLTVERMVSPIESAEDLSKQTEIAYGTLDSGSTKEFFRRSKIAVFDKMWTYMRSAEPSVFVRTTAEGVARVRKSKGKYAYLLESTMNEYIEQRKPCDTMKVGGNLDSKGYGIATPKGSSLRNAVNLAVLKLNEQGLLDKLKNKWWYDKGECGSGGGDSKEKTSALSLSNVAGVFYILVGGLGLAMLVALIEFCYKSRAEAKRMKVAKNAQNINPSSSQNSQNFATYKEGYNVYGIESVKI

Take YGRKKRRQRRRCNDILY [TAT-S6]: the “movement ability of mice” value in the data set with P301S mice [1] is reported as “did not change the movement ability”. Further, the “GluA2 detected by anti-GluA2 antibody in anti-GFP (Syn2b) precipitate; interaction between Syn2b and GluA2” value in data set [2] was “could be clearly detected”. The “time spent at the new object” value in the data set with P301S mice [3] was “spent less time at the new object”. Also, in the data set on P301S mice [4], the “latency to reach the platform in the water maze” value is reported as “prolonged latency to reach the platform”, the “number of times crossing the platform position in the water maze” value was “crossed the platform significantly fewer times” and the “time spent in the target quadrant in the water maze” value is listed as “spent significantly less time in the target quadrant”.

Take “YGRKKRRQRRRYILDCN [TAT-P6, YGRKKRRQRRRYILDCN]”: the solubility in water entry in data set [5] is listed as “completely soluble; also recorded: completely dissolved in water”.
